Assay results: patent US8703961B2, “Thiazole derivatives for the treatment of diseases such as cancer” (Merck Patent GmbH, priority 2009, dated 2014)

Tests used:
Assay in all cases: filter binding kinase assay
Assay type in all cases: biochemical
PAK4 (PAK-4) = target: T1, PAK4 (PAK-4) (Homo sapiens, UniProt O96013); settings: for IC50: derived from % inhibition at 1 μM
T1 construct: purchased
In short: (§1)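 Kinase activity is measured at room temperature by filter binding, with incorporated radiolabel counted after acid termination. A 5-minute preincubation of compound, enzyme and substrate precedes addition of ATP from a kinase-dependent stock (5, 20 or 50 […]).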

TGFBR1 = target: T2, TGFBR1 (Homo sapiens, UniProt P36897); settings: derived from % inhibition at 1 μM
T2 construct: purchased
T2 sequence (P36897 34-503): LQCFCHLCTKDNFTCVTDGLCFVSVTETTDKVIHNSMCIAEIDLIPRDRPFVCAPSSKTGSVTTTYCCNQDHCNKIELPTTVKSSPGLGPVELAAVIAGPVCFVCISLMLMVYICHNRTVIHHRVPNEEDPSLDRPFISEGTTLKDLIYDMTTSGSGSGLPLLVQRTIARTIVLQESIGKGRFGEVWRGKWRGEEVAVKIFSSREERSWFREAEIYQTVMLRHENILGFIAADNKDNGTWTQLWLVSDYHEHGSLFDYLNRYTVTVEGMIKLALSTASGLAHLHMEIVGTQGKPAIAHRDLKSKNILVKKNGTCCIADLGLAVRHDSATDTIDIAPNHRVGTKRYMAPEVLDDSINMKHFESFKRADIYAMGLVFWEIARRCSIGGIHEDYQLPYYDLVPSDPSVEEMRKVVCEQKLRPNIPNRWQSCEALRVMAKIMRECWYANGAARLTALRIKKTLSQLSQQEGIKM
In short: as §1

PRKCZ = target: T3, PRKCZ (Homo sapiens, UniProt Q05513); settings: derived from % inhibition at 1 μM
T3 construct: purchased
T3 sequence (Q05513 1-592): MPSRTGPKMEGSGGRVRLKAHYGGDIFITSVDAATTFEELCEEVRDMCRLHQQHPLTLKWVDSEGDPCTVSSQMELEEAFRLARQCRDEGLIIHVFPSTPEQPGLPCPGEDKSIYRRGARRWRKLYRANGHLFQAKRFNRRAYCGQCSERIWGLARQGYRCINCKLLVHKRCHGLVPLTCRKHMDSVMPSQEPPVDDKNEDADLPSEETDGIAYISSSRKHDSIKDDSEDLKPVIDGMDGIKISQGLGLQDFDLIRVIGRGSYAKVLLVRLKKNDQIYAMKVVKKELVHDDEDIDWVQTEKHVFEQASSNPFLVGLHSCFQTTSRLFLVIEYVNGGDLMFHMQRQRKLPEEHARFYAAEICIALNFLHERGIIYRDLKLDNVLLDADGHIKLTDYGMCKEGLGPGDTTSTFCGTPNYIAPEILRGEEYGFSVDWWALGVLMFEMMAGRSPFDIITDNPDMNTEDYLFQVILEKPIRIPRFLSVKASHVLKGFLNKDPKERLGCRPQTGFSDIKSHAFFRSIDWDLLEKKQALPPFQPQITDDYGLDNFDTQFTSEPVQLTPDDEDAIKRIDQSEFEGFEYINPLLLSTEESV
In short: as §1

RIPK2 = target: T4, RIPK2 (Homo sapiens, UniProt O43353); settings: derived from % inhibition at 1 μM
T4 construct: purchased
T4 sequence (O43353 whole entry, species assumed): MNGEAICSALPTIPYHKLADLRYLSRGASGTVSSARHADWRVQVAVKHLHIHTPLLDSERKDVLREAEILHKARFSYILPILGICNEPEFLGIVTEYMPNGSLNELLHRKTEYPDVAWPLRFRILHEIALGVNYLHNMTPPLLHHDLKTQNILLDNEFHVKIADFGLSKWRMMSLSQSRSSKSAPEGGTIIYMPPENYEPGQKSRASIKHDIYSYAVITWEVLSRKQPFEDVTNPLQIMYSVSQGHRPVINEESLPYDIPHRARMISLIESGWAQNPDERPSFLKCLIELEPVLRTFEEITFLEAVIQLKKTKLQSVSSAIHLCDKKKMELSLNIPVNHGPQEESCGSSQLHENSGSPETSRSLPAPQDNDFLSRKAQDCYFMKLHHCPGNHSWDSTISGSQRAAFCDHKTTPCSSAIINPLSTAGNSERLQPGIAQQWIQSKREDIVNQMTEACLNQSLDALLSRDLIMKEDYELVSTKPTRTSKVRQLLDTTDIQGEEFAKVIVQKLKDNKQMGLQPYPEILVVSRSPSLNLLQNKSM
In short: as §1

MARK2 = target: T5, MARK2 (Homo sapiens, UniProt Q7KZI7); settings: for IC50: derived from % inhibition at 1 μM
T5 construct: purchased
T5 sequence (Q7KZI7 whole entry, species assumed): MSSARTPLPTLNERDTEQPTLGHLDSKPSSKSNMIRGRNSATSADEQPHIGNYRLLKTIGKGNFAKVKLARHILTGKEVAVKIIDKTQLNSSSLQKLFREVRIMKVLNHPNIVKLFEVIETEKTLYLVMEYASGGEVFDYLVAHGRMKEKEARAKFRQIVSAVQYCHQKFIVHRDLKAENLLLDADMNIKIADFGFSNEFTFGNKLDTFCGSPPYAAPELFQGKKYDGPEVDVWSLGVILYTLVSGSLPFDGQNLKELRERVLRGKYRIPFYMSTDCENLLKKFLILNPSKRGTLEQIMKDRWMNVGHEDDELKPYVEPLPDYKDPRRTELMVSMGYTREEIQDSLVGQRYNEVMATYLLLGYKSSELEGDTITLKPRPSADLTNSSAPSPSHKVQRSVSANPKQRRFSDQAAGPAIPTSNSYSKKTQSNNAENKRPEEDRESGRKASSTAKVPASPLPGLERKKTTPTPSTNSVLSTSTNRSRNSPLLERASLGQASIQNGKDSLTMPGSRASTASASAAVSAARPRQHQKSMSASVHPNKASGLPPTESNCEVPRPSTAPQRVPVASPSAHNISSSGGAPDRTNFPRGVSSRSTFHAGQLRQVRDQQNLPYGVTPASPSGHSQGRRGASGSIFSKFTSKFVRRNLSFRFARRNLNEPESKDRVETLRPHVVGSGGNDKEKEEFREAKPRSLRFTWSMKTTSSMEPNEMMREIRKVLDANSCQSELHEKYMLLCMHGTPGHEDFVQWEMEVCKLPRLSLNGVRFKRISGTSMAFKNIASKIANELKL
In short: as §1

CHEK2 = target: T6, CHEK2 (Homo sapiens, UniProt O96017); settings: derived from % inhibition at 1 μM
T6 construct: purchased
T6 sequence (O96017 whole entry, species assumed): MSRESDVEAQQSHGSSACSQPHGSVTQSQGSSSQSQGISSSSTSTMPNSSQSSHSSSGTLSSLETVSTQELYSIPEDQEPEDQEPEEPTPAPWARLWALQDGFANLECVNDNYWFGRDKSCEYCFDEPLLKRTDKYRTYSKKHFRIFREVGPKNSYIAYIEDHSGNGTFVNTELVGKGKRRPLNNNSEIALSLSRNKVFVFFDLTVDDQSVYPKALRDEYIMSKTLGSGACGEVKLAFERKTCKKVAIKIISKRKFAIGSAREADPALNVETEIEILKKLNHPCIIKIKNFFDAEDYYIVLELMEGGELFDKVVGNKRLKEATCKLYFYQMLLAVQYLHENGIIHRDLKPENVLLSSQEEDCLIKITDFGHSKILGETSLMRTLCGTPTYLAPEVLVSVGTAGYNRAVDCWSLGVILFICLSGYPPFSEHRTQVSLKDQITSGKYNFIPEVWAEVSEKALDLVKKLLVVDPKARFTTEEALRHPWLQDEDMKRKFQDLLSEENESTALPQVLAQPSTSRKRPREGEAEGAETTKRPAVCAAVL
In short: as §1

AURKA (Aurora A) = target: T7, AURKA (Aurora A) (Homo sapiens, UniProt O14965); settings: for IC50: derived from % inhibition at 1 μM; for remaining activity at 1 µM: read-out: residual kinase activity Aurora A
T7 construct: purchased
T7 sequence (O14965 1-403): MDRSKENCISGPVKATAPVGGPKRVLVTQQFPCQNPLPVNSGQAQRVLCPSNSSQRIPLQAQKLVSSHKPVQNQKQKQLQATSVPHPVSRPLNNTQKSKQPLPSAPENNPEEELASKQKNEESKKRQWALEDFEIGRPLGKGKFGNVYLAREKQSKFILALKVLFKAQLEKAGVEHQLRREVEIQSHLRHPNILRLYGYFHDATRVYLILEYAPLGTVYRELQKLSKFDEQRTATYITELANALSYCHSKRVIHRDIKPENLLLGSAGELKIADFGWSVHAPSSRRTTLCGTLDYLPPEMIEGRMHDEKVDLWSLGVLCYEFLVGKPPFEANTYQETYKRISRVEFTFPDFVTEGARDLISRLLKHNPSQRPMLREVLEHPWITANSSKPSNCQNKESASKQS
In short: as §1

MAPKAPK5 = target: T8, MAPKAPK5 (Homo sapiens, UniProt Q8IW41); settings: derived from % inhibition at 1 μM
T8 construct: purchased
T8 sequence (Q8IW41 1-473): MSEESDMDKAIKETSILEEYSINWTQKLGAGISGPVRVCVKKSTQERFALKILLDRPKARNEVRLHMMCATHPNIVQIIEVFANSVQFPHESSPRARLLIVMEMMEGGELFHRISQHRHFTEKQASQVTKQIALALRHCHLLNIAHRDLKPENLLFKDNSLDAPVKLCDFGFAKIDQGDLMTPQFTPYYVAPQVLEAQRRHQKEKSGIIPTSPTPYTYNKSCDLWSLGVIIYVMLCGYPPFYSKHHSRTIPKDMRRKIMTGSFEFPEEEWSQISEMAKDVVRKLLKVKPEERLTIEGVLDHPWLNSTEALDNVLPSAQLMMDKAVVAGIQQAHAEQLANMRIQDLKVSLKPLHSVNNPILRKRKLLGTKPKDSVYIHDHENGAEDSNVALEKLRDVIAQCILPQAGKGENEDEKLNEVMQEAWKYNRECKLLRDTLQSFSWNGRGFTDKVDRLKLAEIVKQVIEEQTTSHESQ
In short: as §1

ERBB4 = target: T9, ERBB4 (Homo sapiens, UniProt Q15303); settings: derived from % inhibition at 1 μM
T9 construct: purchased
T9 sequence (Q15303 26-1308, species assumed): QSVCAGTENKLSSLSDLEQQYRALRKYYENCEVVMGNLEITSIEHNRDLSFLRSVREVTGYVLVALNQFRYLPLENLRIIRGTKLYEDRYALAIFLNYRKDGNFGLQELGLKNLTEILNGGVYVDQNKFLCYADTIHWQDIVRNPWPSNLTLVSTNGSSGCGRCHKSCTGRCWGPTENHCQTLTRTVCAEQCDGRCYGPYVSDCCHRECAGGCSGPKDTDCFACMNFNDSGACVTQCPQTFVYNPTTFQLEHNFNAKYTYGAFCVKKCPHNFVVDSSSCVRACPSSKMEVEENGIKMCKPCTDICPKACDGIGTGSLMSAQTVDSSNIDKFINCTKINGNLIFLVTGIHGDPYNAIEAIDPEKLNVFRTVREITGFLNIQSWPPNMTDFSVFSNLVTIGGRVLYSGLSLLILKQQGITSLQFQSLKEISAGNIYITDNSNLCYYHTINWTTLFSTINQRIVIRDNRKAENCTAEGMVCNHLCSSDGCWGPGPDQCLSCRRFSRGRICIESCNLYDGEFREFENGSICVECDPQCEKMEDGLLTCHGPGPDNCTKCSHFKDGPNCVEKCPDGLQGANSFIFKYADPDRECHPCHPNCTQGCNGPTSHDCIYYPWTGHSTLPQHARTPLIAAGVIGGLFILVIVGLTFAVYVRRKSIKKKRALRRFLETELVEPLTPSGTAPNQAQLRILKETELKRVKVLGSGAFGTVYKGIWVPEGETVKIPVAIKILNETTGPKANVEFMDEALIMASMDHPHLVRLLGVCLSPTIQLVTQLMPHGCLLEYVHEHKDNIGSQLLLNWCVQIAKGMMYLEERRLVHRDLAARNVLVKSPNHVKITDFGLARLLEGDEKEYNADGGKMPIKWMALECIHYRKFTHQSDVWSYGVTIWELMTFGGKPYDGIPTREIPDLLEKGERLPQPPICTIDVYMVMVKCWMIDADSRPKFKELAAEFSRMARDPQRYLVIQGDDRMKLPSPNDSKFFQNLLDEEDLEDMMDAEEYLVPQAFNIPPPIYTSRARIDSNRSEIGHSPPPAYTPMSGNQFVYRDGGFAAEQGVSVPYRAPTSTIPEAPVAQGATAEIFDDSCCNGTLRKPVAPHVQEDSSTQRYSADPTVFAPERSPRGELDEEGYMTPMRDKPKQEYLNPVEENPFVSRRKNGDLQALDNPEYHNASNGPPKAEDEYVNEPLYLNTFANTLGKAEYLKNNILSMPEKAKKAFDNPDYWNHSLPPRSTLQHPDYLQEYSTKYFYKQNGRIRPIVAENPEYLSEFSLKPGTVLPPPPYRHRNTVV
In short: as §1

PRKAA1 = target: T10, PRKAA1 (Homo sapiens, UniProt Q13131); settings: derived from % inhibition at 1 μM
T10 construct: purchased
In short: as §1

MST4 = target: T11, MST4 (Homo sapiens, UniProt Q9P289); settings: derived from % inhibition at 1 μM
T11 construct: purchased
T11 sequence (Q9P289 whole entry, species assumed): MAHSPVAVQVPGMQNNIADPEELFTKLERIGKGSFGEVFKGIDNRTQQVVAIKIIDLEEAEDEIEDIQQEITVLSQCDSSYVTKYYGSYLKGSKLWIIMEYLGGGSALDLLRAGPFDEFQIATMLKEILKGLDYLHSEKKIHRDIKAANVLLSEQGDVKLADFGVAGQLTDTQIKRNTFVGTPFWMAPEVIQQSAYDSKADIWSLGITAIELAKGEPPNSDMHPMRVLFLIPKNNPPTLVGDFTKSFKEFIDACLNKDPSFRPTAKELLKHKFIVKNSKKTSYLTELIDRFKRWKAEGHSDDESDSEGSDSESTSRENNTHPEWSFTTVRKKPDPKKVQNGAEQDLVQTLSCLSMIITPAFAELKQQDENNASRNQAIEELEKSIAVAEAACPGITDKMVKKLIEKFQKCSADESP
In short: as §1

RPS6KA3 = target: T12, RPS6KA3 (Homo sapiens, UniProt P51812); settings: derived from % inhibition at 1 μM
T12 construct: purchased
T12 sequence (P51812 whole entry, species assumed): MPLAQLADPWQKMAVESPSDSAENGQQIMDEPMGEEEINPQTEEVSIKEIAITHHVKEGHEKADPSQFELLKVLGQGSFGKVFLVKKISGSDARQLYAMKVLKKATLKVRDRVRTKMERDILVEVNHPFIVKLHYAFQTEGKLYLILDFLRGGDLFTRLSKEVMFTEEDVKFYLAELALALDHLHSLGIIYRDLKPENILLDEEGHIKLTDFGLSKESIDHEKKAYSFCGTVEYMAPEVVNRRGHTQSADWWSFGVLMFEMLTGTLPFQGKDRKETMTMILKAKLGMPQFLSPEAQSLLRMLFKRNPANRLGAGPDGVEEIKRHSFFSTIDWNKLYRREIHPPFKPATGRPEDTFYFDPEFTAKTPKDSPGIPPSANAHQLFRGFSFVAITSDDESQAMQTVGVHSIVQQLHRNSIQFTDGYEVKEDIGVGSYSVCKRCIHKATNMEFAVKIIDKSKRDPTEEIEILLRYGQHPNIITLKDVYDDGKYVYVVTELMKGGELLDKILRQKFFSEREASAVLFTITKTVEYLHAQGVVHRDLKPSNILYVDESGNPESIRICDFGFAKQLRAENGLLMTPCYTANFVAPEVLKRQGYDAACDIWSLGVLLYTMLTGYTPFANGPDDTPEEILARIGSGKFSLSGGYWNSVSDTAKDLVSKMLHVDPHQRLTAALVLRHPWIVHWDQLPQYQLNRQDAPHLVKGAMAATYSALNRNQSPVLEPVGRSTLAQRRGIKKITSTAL
In short: as §1

T1 sequence (O96013 whole entry, species assumed): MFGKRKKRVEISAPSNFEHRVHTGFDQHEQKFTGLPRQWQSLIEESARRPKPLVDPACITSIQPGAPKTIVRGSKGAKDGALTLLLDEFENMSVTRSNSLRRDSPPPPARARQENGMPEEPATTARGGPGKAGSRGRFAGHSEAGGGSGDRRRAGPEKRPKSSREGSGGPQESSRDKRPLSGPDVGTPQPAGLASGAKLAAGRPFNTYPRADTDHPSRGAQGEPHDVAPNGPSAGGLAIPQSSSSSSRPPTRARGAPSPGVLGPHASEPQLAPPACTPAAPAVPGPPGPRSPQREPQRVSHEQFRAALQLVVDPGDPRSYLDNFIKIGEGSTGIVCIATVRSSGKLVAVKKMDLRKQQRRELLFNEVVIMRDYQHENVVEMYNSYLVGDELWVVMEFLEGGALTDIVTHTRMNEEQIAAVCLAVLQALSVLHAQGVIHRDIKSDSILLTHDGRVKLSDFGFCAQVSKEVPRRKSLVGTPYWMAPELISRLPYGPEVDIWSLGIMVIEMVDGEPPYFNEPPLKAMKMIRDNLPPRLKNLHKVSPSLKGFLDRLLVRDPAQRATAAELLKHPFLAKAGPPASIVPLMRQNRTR

SMILES	IC50 (PAK4 (PAK-4)) [µM]	IC50 (TGFBR1) [µM]	IC50 (PRKCZ) [µM]	IC50 (RIPK2) [µM]	IC50 (MARK2) [µM]	IC50 (CHEK2) [µM]	IC50 (AURKA (Aurora A)) [µM]	remaining activity at 1 µM (AURKA (Aurora A)) [%]	IC50 (MAPKAPK5) [µM]	IC50 (ERBB4) [µM]	IC50 (PRKAA1) [µM]	IC50 (MST4) [µM]	IC50 (RPS6KA3) [µM]	remaining activity at 1 µM (PAK4 (PAK-4); read-out: residual kinase activity PAK-4) [%]	remaining activity at 1 µM (MARK2; read-out: residual kinase activity MARK2) [%]
c1ccc(Cc2c[nH]c3ncsc23)cc1 [Compound A7, 6-benzyl-4H-pyrrolo[2,3-d]thiazole]	> 1	10 to 100	> 1	10 to 100	10 to 100	> 1	0.01 to 1	33	> 1	10 to 100	10 to 100	> 1	1 to 10		
Nc1ncsc1C#Cc1cnc2[nH]ccc2c1 [Compound A22, 5-(1H-pyrrolo[2,3-b]pyridin-5-ylethynyl)thiazol-4-ylamine]	0.01 to 1	10 to 100	> 1	1 to 10	0.01 to 1	> 1	0.01 to 1	39	10 to 100	> 1	10 to 100	1 to 10	10 to 100	34	31
Nc1ncsc1C#Cc1cccc(O)c1 [Compound A27, 3-(4-aminothiazol-5-ylethynyl)phenol]	> 1	1 to 10	> 1	1 to 10	10 to 100	10 to 100	1 to 10		10 to 100	1 to 10	1 to 10	> 1	1 to 10		
CC(C)(C)OC(=O)Nc1ncsc1C#CCN1C(=O)c2ccccc2C1=O [Compound A26, tert-butyl{5-[3-(1,3-dioxo-1,3-dihydroisoindol-2-yl)prop-1-ynyl]-thiazol-4-yl}carbamate]	1 to 10	10 to 100	10 to 100	10 to 100	1 to 10	> 1	1 to 10		1 to 10	> 1	10 to 100	10 to 100	> 1		
CC(C)(C)OC(=O)Nc1nc(-c2ccncc2)sc1C#CCN1CCOCC1 [Compound A25, tert-butyl[5-(3-morpholin-4-ylprop-1-ynyl)-2-pyridin-4-ylthiazol-4-yl]-carbamate]	> 1	1 to 10	10 to 100	> 1	> 1	> 1	> 1		> 1	> 1	10 to 100	> 1	> 1		
